Converted amounts (≈) assume the structure as drawn. One block for each compound: values may come before it.
Key:
Experiment in all cases: ≥ marks a high value that may be exact or a test limit, other limits are often not marked, values filed in µg/mL are converted to µM
Bacillus subtilis 168 = tested on: Bacillus subtilis 168
[1] = tested on: Candida albicans ATCC 10231
[2] = tested on: Candida glabrata ATCC 2001
[3] = tested on: Candida tropicalis ATCC 13803
[4] = tested on: Escherichia coli ATCC 25922
[5] = tested on: Klebsiella pneumoniae ATCC 13883
[6] = tested on: Pseudomonas aeruginosa PAO1
[7] = tested on: Staphylococcus aureus MU50
[8] = tested on: Staphylococcus aureus Newman
[9] = tested on: Staphylococcus aureus UAMS-1
[10] = tested on: Staphylococcus aureus USA 200
[11] = tested on: Staphylococcus aureus USA 400
[12] = tested on: Staphylococcus epidermidis 1457
Escherichia coli BW25113 = tested on: Escherichia coli BW25113
Escherichia coli J2210 = tested on: Escherichia coli J2210
Escherichia coli JJ2489 = tested on: Escherichia coli JJ2489
Escherichia coli JW0013 = tested on: Escherichia coli JW0013
[13] = tested on: Escherichia coli JW0368 ΔsbmA
[14] = tested on: Escherichia coli JW2778 ΔygdD
Escherichia coli MC1041 = tested on: Escherichia coli MC1041
[15] = tested on: Salmonella enterica subsp. enterica serovar Enteritidis MH91989
[16] = tested on: Salmonella typhimurium SL1344
Bacillus subtilis = tested on: Bacillus subtilis
Enterococcus faecalis = tested on: Enterococcus faecalis
Escherichia coli O111:B4 = tested on: Escherichia coli O111:B4
[17] = tested on: Pseudomonas aeruginosa H103
[18] = tested on: Salmonella typhimurium C610
[19] = tested on: Staphylococcus aureus K147
[20] = tested on: Staphylococcus aureus SAP 0017
[21] = tested on: Staphylococcus epidermidis
[22] = tested on: Bacillus amyloliquefaciens ATCC 23842
[23] = tested on: Bacillus cereus ATCC 14579
[24] = tested on: Bacillus licheniformis ATCC 14580
[25] = tested on: Bacillus subtilis ATCC 6051
[26] = tested on: Enterococcus faecalis 1F-1
[27] = tested on: Enterococcus faecium 5F-10
[28] = tested on: Proteus mirabilis ATCC 35659
[29] = tested on: Salmonella enterica ATCC H9812
[30] = tested on: Staphylococcus aureus ATCC 29213
[31] = tested on: Escherichia coli CVCC 1515
Escherichia coli K88 = tested on: Escherichia coli K88
Escherichia coli UB1005 = tested on: Escherichia coli UB1005
[32] = tested on: Pseudomonas aeruginosa ATCC 27853
[33] = tested on: Salmonella enterica subsp. enterica serovar Typhimurium ATCC 14028
[34] = tested on: Staphylococcus epidermidis ATCC 12228
[35] = tested on: Candida albicans ATCC 90029
Candida albicans = tested on: Candida albicans
Escherichia coli = tested on: Escherichia coli
Pseudomonas aeruginosa = tested on: Pseudomonas aeruginosa
Staphylococcus aureus = tested on: Staphylococcus aureus

Structure (SMILES): CC(C)C[C@H](NC(=O)[C@H](CC(C)C)NC(=O)[C@H](CCCCN)NC(=O)[C@H](C)NC(=O)[C@H](C)NC(=O)[C@H](C)NC(=O)[C@H](CCCCN)NC(=O)[C@H](C)NC(=O)[C@H](C)NC(=O)[C@H](C)NC(=O)[C@H](CCCCN)NC(=O)[C@H](Cc1c[nH]c2ccccc12)NC(=O)[C@@H](N)CC(C)C)C(N)=O [LWKAAAKAAAKLL]
MIC [4]: 1 µM (≈ 1.35 µg/mL)
MIC [31]: 8 µM (≈ 10.8 µg/mL)
MIC (Escherichia coli K88): 4 µM (≈ 5.41 µg/mL)
MIC (Escherichia coli UB1005): 8 µM (≈ 10.8 µg/mL)
MIC [32]: 4 µM (≈ 5.41 µg/mL)
MIC [33]: 32 µM (≈ 43.3 µg/mL)
MIC [30]: 4 µM (≈ 5.41 µg/mL)
MIC [34]: 4 µM (≈ 5.41 µg/mL)

Structure (SMILES): CC(C)C[C@H](NC(=O)[C@H](Cc1cnc[nH]1)NC(=O)[C@H](CO)NC(=O)[C@H](C)NC(=O)[C@H](CC(C)C)NC(=O)[C@@H](NC(=O)[C@@H](NC(=O)[C@H](CC(C)C)NC(=O)[C@H](CC(C)C)NC(=O)[C@H](CO)NC(=O)[C@H](Cc1cnc[nH]1)NC(=O)[C@H](CO)NC(=O)[C@H](CC(C)C)NC(=O)[C@H](CC(C)C)NC(=O)[C@H](CCCCN)NC(=O)[C@H](Cc1ccccc1)NC(=O)[C@H](CCCN=C(N)N)NC(=O)[C@@H](N)CCCN=C(N)N)C(C)C)[C@@H](C)O)C(=O)O [RRFKLLSHSLLVTLASHL]
MIC [35]: 5.98 µM (≈ 12.5 µg/mL)
MIC (Candida albicans): 2.99 µM (≈ 6.25 µg/mL)
MIC [4]: 1.49 µM (≈ 3.12 µg/mL)
MIC (Escherichia coli): 1.49 µM (≈ 3.12 µg/mL)
MIC (Pseudomonas aeruginosa): 2.99 µM (≈ 6.25 µg/mL)
MIC [30]: 2.99 µM (≈ 6.25 µg/mL)
MIC (Staphylococcus aureus): 1.49 µM (≈ 3.12 µg/mL)

Other lines, results leading:

MIC (Bacillus subtilis 168): 17.7 µM (≈ 26.3 µg/mL)
MIC [1]: 12.5 µM (≈ 18.6 µg/mL)
MIC [2]: 12.5 µM (≈ 18.6 µg/mL)
MIC [3]: 1.6 µM (≈ 2.38 µg/mL)
MIC [4]: > 50 µM
MIC [5]: ≥ 50 µM
MIC [6]: > 50 µM
MIC [7]: 3.1 µM (≈ 4.61 µg/mL)
MIC [8]: 1.6 µM (≈ 2.38 µg/mL)
MIC [9]: 25 µM (≈ 37.2 µg/mL)
MIC [10]: 3.1 µM (≈ 4.61 µg/mL)
MIC [11]: 1.56 µM (≈ 2.32 µg/mL)
MIC [12]: 1.6 µM (≈ 2.38 µg/mL)
Structure (SMILES): CC[C@H](C)[C@H](NC(=O)[C@H](CCCCN)NC(=O)CNC(=O)[C@H](CC(C)C)NC(=O)[C@@H](NC(=O)[C@H](CO)NC(=O)[C@H](CCCCN)NC(=O)[C@H](CC(C)C)NC(=O)[C@H](Cc1ccccc1)NC(=O)[C@@H]1CCCN1C(=O)[C@H](CC(C)C)NC(=O)[C@@H](N)Cc1ccccc1)[C@@H](C)CC)C(=O)N[C@@H](CC(C)C)C(N)=O [FLPFLKSILGKIL]

MIC (Escherichia coli BW25113): 0.062 µM (≈ 0.135 µg/mL)
MIC (Escherichia coli J2210): 0.126 µM (≈ 0.273 µg/mL)
MIC (Escherichia coli JJ2489): 0.126 µM (≈ 0.273 µg/mL)
MIC (Escherichia coli JW0013): 0.048 µM (≈ 0.104 µg/mL)
MIC [13]: 0.096 µM (≈ 0.208 µg/mL)
MIC [14]: 0.126 µM (≈ 0.273 µg/mL)
MIC (Escherichia coli MC1041): 0.096 µM (≈ 0.208 µg/mL)
MIC [15]: 0.067 µM (≈ 0.145 µg/mL)
MIC [16]: 0.126 µM (≈ 0.273 µg/mL)
Structure (SMILES): CC(C)C[C@H](NC(=O)[C@H](CCCN=C(N)N)NC(=O)[C@@H]1CCCN1C(=O)[C@H](CCCN=C(N)N)NC(=O)[C@@H]1CCCN1C(=O)[C@@H]1CCCN1C(=O)[C@H](CCCN=C(N)N)NC(=O)[C@@H]1CCCN1C(=O)[C@H](CCC(N)=O)NC(=O)[C@@H]1CCCN1C(=O)[C@H](CCCN=C(N)N)NC(=O)[C@H](Cc1ccc(O)cc1)NC(=O)[C@@H](NC(=O)[C@@H]1CCCN1C(=O)[C@H](CCCN=C(N)N)NC(=O)[C@H](CC(N)=O)NC(=O)[C@H](CC(N)=O)NC(=O)CN)C(C)C)C(=O)O [GNNRPVYRPQPRPPRPRL]

MIC (Bacillus subtilis): ≥ 68.9 µM
MIC (Enterococcus faecalis): ≥ 68.9 µM
MIC (Escherichia coli O111:B4): ≥ 68.9 µM
MIC [17]: ≥ 68.9 µM
MIC [18]: ≥ 68.9 µM
MIC [19]: ≥ 68.9 µM
MIC [20]: ≥ 68.9 µM
MIC [21]: ≥ 68.9 µM
Structure (SMILES): CC(C)C[C@H](NC(=O)[C@H](CCCCN)NC(=O)[C@H](CCCCN)NC(=O)[C@H](Cc1ccccc1)NC(=O)[C@H](Cc1ccccc1)NC(=O)[C@H](CO)NC(=O)[C@H](CCCCN)NC(=O)[C@@H](N)CCCCN)C(=O)N[C@H](C(=O)N[C@@H](CO)C(=O)N[C@H](C(=O)N[C@@H](C)C(=O)N[C@@H](CO)C(=O)N[C@@H](CO)C(=O)N[C@H](C(=O)N[C@@H](CC(C)C)C(=O)N[C@@H](CO)C(=O)O)C(C)C)C(C)C)[C@@H](C)O [KKSFFKKLTSVASSVLS]

MIC [22]: ≥ 154 µM
MIC [23]: ≥ 154 µM
MIC [24]: ≥ 154 µM
MIC [25]: ≥ 154 µM
MIC [26]: ≥ 154 µM
MIC [27]: ≥ 154 µM
MIC [4]: > 154 µM
MIC [28]: ≥ 154 µM
MIC [6]: > 154 µM
MIC [29]: ≥ 154 µM
MIC [30]: > 154 µM
Structure (SMILES): CC(C)C[C@H](NC(=O)[C@@H](N)CC(C)C)C(=O)N[C@@H](CO)C(=O)N[C@@H](CCCN=C(N)N)C(=O)N[C@H](C(=O)N[C@@H](CC(=O)O)C(=O)N[C@@H](CCC(=O)O)C(=O)O)C(C)C [LLSRVDE]

From DBAASP
